Experimental data from patent publication US20240300975A1, “DIMETHYL-SUBSTITUTED THIAZOLOLACTAM COMPOUND AND USE THEREOF” (D3 Bio (Wuxi) Co., Ltd., priority 2021, published 2024).
In brackets after ≈: the same amount, converted by molar mass. Where two headings read alike, the source gives them in different places.

Legend:
[1] = target: hERG potassium channel (Homo sapiens (Human), UniProt Q12809); experiment: hERG assay (automated patch-clamp, CHO-hERG cells); assay type: cell-based; settings: Qpatch, highest assayed concentration 40 μM
hERG potassium channel, sequence (Q12809 whole entry): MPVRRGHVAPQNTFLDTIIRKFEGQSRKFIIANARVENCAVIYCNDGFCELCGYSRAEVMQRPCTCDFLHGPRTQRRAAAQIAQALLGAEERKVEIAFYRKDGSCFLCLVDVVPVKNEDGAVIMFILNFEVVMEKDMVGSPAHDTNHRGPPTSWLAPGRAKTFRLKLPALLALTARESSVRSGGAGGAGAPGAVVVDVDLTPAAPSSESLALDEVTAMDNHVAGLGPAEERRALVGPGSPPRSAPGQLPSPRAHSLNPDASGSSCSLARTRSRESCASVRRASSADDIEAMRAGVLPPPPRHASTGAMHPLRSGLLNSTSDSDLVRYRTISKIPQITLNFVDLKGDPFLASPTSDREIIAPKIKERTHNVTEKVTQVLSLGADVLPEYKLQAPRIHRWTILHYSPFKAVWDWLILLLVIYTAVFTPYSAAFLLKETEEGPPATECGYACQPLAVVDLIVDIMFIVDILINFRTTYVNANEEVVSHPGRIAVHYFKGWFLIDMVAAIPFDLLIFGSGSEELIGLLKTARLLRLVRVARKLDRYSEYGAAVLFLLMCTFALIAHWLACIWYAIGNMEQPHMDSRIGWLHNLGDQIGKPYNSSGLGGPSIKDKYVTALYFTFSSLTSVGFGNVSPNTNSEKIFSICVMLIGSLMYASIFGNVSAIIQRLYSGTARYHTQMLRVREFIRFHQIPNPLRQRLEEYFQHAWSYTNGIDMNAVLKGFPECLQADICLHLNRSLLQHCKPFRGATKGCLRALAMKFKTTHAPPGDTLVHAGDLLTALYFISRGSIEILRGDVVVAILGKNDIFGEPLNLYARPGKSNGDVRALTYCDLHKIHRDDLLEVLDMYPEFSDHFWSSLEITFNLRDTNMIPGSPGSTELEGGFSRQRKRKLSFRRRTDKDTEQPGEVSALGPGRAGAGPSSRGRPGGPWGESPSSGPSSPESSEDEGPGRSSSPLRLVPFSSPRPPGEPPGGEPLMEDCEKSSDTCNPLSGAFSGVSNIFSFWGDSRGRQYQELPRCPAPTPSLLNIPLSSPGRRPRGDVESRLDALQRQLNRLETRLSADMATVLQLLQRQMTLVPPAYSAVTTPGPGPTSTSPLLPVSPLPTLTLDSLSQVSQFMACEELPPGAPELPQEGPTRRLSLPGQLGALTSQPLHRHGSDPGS
Experimental: A fully automated patch-clamp method was used to assay the effect of the compound on hERG potassium channel (human Ether-a-go-go Related Gene potassium channel) current.
CHO-hERG cells were cultured in a 175 cm^2 culture flask. When cells grew to a density of 60˜80%, the culture medium was removed. Cells were washed once with 7 mL of PBS (Phosphate Buffered Saline), and then 3 mL of Detachin was added for digestion. After the digestion was completed, 7 mL of culture medium was added for neutralization, and then the mixture was centrifuged. The supernatant was aspirated, and then 5 mL of culture medium was added to resuspend the cells and ensure that the cell density was 2˜5×10^6/mL.
Extracellular solution formulation (mM): 140 NaCl, 5 KCl, 1 CaCl2), 1.25 MgCl2, 10 HEPES and 10 Glucose; the formulation was adjusted to pH of 7.4 with NaOH. […]
The single-cell high-impedance sealing and whole-cell pattern formation processes were all automatically performed by a Qpatch instrument. […] This voltage stimulation was applied every 15 seconds, and recorded for 2 minutes. The extracellular solution was then given, and recorded for 5 minutes. […]
Assay data were analyzed by GraphPad Prism 5.0 software. […]
• The inhibitory effect of Cisapride with multiple concentrations on the hERG channel was measured as a positive control.

[2] = target: ERK1 (Homo sapiens (Human), UniProt P27361); experiment: In vitro ERK1 kinase activity assay (33P-ATP, filter-binding); assay type: biochemical
ERK1, sequence (P27361 whole entry): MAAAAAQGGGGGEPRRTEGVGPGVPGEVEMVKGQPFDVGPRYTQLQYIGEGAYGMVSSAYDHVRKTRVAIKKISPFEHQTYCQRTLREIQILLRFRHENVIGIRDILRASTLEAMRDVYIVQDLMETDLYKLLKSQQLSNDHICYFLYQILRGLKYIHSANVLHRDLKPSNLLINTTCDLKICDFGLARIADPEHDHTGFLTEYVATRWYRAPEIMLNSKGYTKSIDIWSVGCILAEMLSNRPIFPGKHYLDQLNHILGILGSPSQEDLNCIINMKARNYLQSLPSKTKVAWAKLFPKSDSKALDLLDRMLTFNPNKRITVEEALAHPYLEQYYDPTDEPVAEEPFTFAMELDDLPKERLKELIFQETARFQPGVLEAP
Experimental: The ability of compounds to inhibit ERK1 and ERK2 kinase activity was measured.
20 mM Hepes (pH 7.5), 10 mM MgCl2, 1 mM ethylenebis(oxyethylenenitrilo)tetraacetic acid (EGTA), 0.02% Brij35, 0.02 mg/mL bovine serum albumin (BSA), 0.1 mM Na3VO4, 2 mM dithiothreitol (DTT), 1% DMSO.
The assay compound was dissolved in 100% DMSO to prepare a stock solution of specific concentration. The compound was serially diluted in DMSO solution using Integra Viaflo Assist smart pipette.
• a) The substrate MBP was prepared in freshly prepared reaction buffer; • b) ERK1 (or ERK2) kinase was added to the above-mentioned MBP solution and mixed gently; • c) The compound dissolved in 100% DMSO was added to the kinase reaction system using ultrasound technology (Echo550; nanoliter range), and the mixture was incubated at room temperature for 20 minutes; • d)^33P-ATP (specific concentration of […]) was added to the reaction system, and the reaction was started at this time; • e) The mixture was incubated at room temperature for 2 hours; • f) The amount of radioactivity was detected by filter-binding method; • g) ERK1 (or ERK2) kinase activity was calculated as the ratio of the remaining kinase activity in the assay sample to the kinase activity of the control group (treated by DMSO).
Curve was fitted using Prism (GraphPad software) and IC50 values were calculated.

[3] = Solubility study (HPLC-UV, 24 h shaking); assay type: physicochemical; settings: 25 °C, aqueous buffer, kinetic from dmso stock, 2% DMSO, max 200 μM
Experimental: The solubility of a compound was determined to evaluate the solubility property of the compound.
• 1) Buffer A (pH 2.0): 50 mM phosphate buffer, pH 2.0; Buffer B (pH 6.5): 50 mM phosphate buffer, pH 6.5; Buffer C (pH 7.4): 50 mM phosphate buffer, pH 7.4; • 2) Preparation of standard solution: • a) 50% acetonitrile solution and 50% buffer solution were mixed to obtain a diluent; • b) 10 mM (10 μL/compound) compound stock solution was added to the diluent (490 μL/compound) to obtain 200 μM detection standard solution; • c) The 200 μM UV detection standard solution was diluted with 10-fold and 200-fold volume of diluents to obtain 20 μM and 1 μM UV standard solutions, respectively; • d) 1 μM, 20 μM, and 200 μM UV standard solutions were used as standard solutions for solubility assay.
• a) The compound was dissolved in DMSO to prepare a 10 mM stock solution. […] The pH of the corresponding solubility solutions was 2.0, 6.5 and 7.4, respectively. The theoretical maximum concentration of the assay compound is 200 μM with 2% DMSO; • c) The plate was shaken in a shaker at room temperature (25±2° C.) at 600 rpm for 24 hours; • d) 200 μL of the solution was pipetted from the 96-well plate, filtered with suction by a vacuum suction filtration device, and transferred into a new 96-well plate as an assay sample; • e) The compound concentration was determined using HPLC-UV.
• f) Three UV standard solutions from low concentration to high concentration (1 μM, 20 μM, 200 μM) were injected into HPLC, and then the assay sample of the compound to be assayed was injected; • g) The UV chromatographic peaks were integrated, and the solubility of the sample was calculated.

For `Cc1cccc(CN2C(=O)c3nc(-c4nc(Nc5ccnn5C)ncc4C)sc3C2(C)C)n1` [WX001], the IC50 [1] was > 40000 nM, the IC50 [2] was 1.2 nM and the solubility at 24 h ([3]; 50 mM phosphate buffer pH 2.0, 25±2° C., read-out: Solubility pH = 2.0) was > 200 µM. For the same compound, the solubility at 24 h ([3]; 50 mM phosphate buffer pH 6.5, 25±2° C., read-out: Solubility pH = 6.5) was 6.2 µM (≈ 2.86 µg/mL) and the solubility at 24 h ([3]; 50 mM phosphate buffer pH 7.4, 25±2° C., read-out: Solubility pH = 7.4) was 7.08 µM (≈ 3.26 µg/mL).
